Assays:
Type in all cases: in vivo
[1] = test system: Winter wheat of the "Bussard" cultivar; assay: Degree of stem lodging in winter wheat ready for harvest, field test; conditions: crops ready for harvest; for Degree of lodging: % lodged area x intensity (0-100) / 100
Protocol: Winter wheat of the “Bussard” cultivar was cultivated under field conditions. To “provoke” significant lodging, the supply of the nutrient element nitrogen was deliberately selected too high. The remaining growing conditions corresponded to customary practice. The plants were treated with the inventive active ingredient combination at the BBCH 31/32 development stage (1- to 2-node stage) as a foliar application with a liquid volume of 200 I/ha. Prohexadione-Ca (“ProCa”) (50 g/ha) was used as Regalis (BASF) and trinexapac-ethyl (“TriEt”) (75 g/ha) as Moddus (Syngenta). The shoot length of the plants was measured at various times from the treatment until they were ready for harvest. The following results were obtained (data in centimeters):
For crops ready for harvest from the test, the degree of stem lodging was determined. This value is the product of the percentage area in which the wheat plants are no longer upright with the intensity of lodging (0=plants are upright/100=plants lie flat on the ground) divided by 100. The values obtained here likewise lead to the conclusion of a synergistic interaction of the active ingredients involved: […]

[2] = test system: Winter wheat of the "Bussard" cultivar; assay: Reduction of shoot growth in winter wheat, field test
Protocol: Winter wheat of the “Bussard” cultivar was cultivated under field conditions. To “provoke” significant lodging, the supply of the nutrient element nitrogen was deliberately selected too high. The remaining growing conditions corresponded to customary practice. The plants were treated with the inventive active ingredient combination at the BBCH 31/32 development stage (1- to 2-node stage) as a foliar application with a liquid volume of 200 I/ha. Prohexadione-Ca (“ProCa”) (50 g/ha) was used as Regalis (BASF) and trinexapac-ethyl (“TriEt”) (75 g/ha) as Moddus (Syngenta). The shoot length of the plants was measured at various times from the treatment until they were ready for harvest. The following results were obtained (data in centimeters): […]

[3] = test system: Wheat plants of the "Cubus" cultivar; assay: Reduction of shoot growth in winter wheat, greenhouse test
Protocol: Wheat plants of the “Cubus” cultivar were cultivated in pots of diameter 12 cm on a customary growing substrate. The plants were treated at BBCH development stage 11/12 (1-2 leaves unfolded) at a shoot length of 16 cm as a foliar application with a liquid volume of 750 I/ha. Both prohexadione-Ca (“ProCa”) and trinexapac-ethyl (“TriEt”) were used as technical grade active ingredients. To prepare an applicable spray liquor, the adjuvant LI-700 (Loveland Products, Inc., Greeley, Colo., USA) was added in a concentration of 0.1%. The shoot length of the plants was measured at different times after the treatment. The following results were obtained (data in centimeters): […]

[4] = 25 g/ha foliar, 0 days after treatment
[5] = 25 g/ha foliar, 5 days after treatment
[6] = 25 g/ha foliar, 8 days after treatment
[7] = 25 g/ha foliar, 11 days after treatment
[8] = 50 g/ha foliar, 0 days after treatment
[9] = 50 g/ha foliar, 5 days after treatment
[10] = 50 g/ha foliar, 8 days after treatment
[11] = 50 g/ha foliar, 11 days after treatment
[12] = 100 g/ha foliar, 0 days after treatment
[13] = 100 g/ha foliar, 5 days after treatment
[14] = 100 g/ha foliar, 8 days after treatment
[15] = 100 g/ha foliar, 11 days after treatment

How did the “Improvement over control [%] (degree of lodging)” value ([1]; 50 g/ha) turn out when `CCC(=O)C1=C([O-])CC(C(=O)[O-])CC1=O.[Ca+2]` (stereo not drawn) [ProCa, prohexadione-Ca] was run?
Its value is 11%.

And the “Improvement over control absolute (degree of lodging)” value ([1]; 50 g/ha)?
The value was 10.

What about the Degree of lodging ([1]; 50 g/ha) of the same compound?
Its Degree of lodging is 81.

What about the shoot length ([2]; 50 g/ha (as Regalis) foliar, 0 days after treatment) of the same compound?
The shoot length was 43.0 cm.

And the shoot length ([2]; 50 g/ha (as Regalis) foliar, 7 days after treatment)?
Its shoot length is 50.0 cm.

What about the shoot length ([2]; 50 g/ha (as Regalis) foliar, 21 days after treatment) of the same compound?
Its shoot length is 69.3 cm.

What about the shoot length ([2]; 50 g/ha (as Regalis) foliar, 30 days after treatment) of the same compound?
The shoot length was 89.0 cm.

What about the shoot length ([2]; 50 g/ha (as Regalis) foliar, 37 days after treatment) of the same compound?
The shoot length was 99.5 cm.

And the shoot length ([2]; 50 g/ha (as Regalis) foliar, 49 days after treatment)?
Its shoot length is 119.8 cm.

And the shoot length ([2]; 50 g/ha (as Regalis) foliar, 63 days after treatment)?
Its shoot length is 120.0 cm.

And the shoot length [3, 4]?
The shoot length was 16 cm.

What about the shoot length [3, 5] of the same compound?
Its shoot length is 23.0 cm.

What about the shoot length [3, 6] of the same compound?
The shoot length was 26.6 cm.

What about the shoot length [3, 7] of the same compound?
Its shoot length is 31.1 cm.

What about the shoot length [3, 8] of the same compound?
The shoot length was 16 cm.

And the shoot length [3, 9]?
The shoot length was 23.0 cm.

And the shoot length [3, 10]?
The shoot length was 26.3 cm.

What about the shoot length [3, 11] of the same compound?
The shoot length was 29.5 cm.

And the shoot length [3, 12]?
The shoot length was 16 cm.

And the shoot length [3, 13]?
The shoot length was 22.5 cm.

And the shoot length [3, 14]?
Its shoot length is 24.0 cm.

And the shoot length [3, 15]?
Its shoot length is 25.8 cm.

How did the Degree of lodging ([1]; 75 g/ha) turn out when `CCOC(=O)C1CC(=O)C(=C(O)C2CC2)C(=O)C1` (stereo not drawn) [TriEt, trinexapac-ethyl] was run?
Its Degree of lodging is 93.

And the shoot length ([2]; 75 g/ha (as Moddus) foliar, 0 days after treatment)?
The shoot length was 43.0 cm.

And the shoot length ([2]; 75 g/ha (as Moddus) foliar, 7 days after treatment)?
Its shoot length is 54.5 cm.

And the shoot length ([2]; 75 g/ha (as Moddus) foliar, 21 days after treatment)?
Its shoot length is 76.3 cm.

What about the shoot length ([2]; 75 g/ha (as Moddus) foliar, 30 days after treatment) of the same compound?
The shoot length was 97.8 cm.

And the shoot length ([2]; 75 g/ha (as Moddus) foliar, 37 days after treatment)?
The shoot length was 102.8 cm.

And the shoot length ([2]; 75 g/ha (as Moddus) foliar, 49 days after treatment)?
The shoot length was 119.8 cm.

What about the shoot length ([2]; 75 g/ha (as Moddus) foliar, 63 days after treatment) of the same compound?
Its shoot length is 121.0 cm.

And the shoot length [3, 4]?
Its shoot length is 16 cm.

And the shoot length [3, 5]?
The shoot length was 24.6 cm.

And the shoot length [3, 6]?
The shoot length was 27.9 cm.

What about the shoot length [3, 7] of the same compound?
Its shoot length is 32.9 cm.

And the shoot length [3, 8]?
The shoot length was 16 cm.

And the shoot length [3, 9]?
The shoot length was 24.4 cm.

What about the shoot length [3, 10] of the same compound?
The shoot length was 26.5 cm.

What about the shoot length [3, 11] of the same compound?
Its shoot length is 31.8 cm.

What about the shoot length [3, 12] of the same compound?
The shoot length was 16 cm.

And the shoot length [3, 13]?
Its shoot length is 22.3 cm.

And the shoot length [3, 14]?
The shoot length was 23.6 cm.

What about the shoot length [3, 15] of the same compound?
The shoot length was 28.5 cm.

Reference: patent US9220262B2, “Use of acylcyclohexanedione carboxylic acid or salts thereof in combination with acylcyclohexanedione carboxylic acid esters for improving the development of gramineous plants” (BASF SE, priority 2008, dated 2015)
